Experimental data reported in patent publication US20250011368A1, “DLL3 TARGETING PEPTIDES AND CONSTRUCTS THEREOF” (MARIANA ONCOLOGY INC., priority 2023, published 2025).
Numbered stars: 1 amine (or outer) side, 2 acyl side, 3 side chain; on linkers, the order of the positions; unused ones are H or OH. Bridge positions count the residues as written; N and C are the ends. Square brackets hold non-standard residues; d marks the D form. Peptide text beside a SMILES is read from it. * marks the point of attachment. Ala(piperidin-4-yl) = O=C([C@H](CC1CCN([*:3])CC1)N[*:1])[*:2]; DOTA = O=C(O)CN1CCN(CC(=O)O)CCN(CC(=O)*)CCN(CC(=O)O)CC1; Ala(morpholin-4-yl) = N[C@@H](CN1CCOCC1)C(=O)O; 2Nal = N[C@@H](Cc1ccc2ccccc2c1)C(=O)O; 3Pal = N[C@@H](Cc1cccnc1)C(=O)O; Chg = N[C@H](C(=O)O)C1CCCCC1

Key:
CT26.DLL3 cells [1] = assay: Cell binding (total uptake) of [177Lu]Lu-test peptide, CT26.DLL3 cells; assay type: cell-based; settings: 1 hour at 37° C.
Description: (§1) [^177Lu]LuCl3 was received from venders in HCl solution. For every mCi of [^177Lu]LuCl3 added to the reaction vial (1.5 mL Eppendorf vial), ammonium acetate buffer (0.2 M, pH 4.9, 100 μL, containing 1% w/v ascorbic acid and 6% v/v ethanol) and peptide conjugate (1 nmol). A peptide conjugate of the present disclosure is also referred to herein as a “chelator-peptide”. The pH of the solution was determined to be approximately 5 by using pH strips. The reaction vial was incubated at 80° C., 700 RPM for 17-20 minutes. A sample from the reaction was analyzed by RP-HPLC using an Agilent Infinity II 1260 HPLC to determine reaction completion and radiochemical purity of [^177Lu]Lu-chelator-peptide. HPLC conditions: Waters XBridge BEH C18 Column, 130 Å, 3.5 um, 4.6 mm×250 mm; mobile phase: Solvent A=water (with 0.1% formic acid), solvent B=acetonitrile (with 0.1% formic acid). Gradients: 25-45% B in 10 minutes, 45-65% B in 12 minutes, 65-90% in 6 minutes at a flow rate of 0.5 mL/minute. Required amounts of the product was formulated in 1% PBSA for cell studies.
(§2) The study was conducted using SHP-77, CT26.WT, and CT26.DLL3 cells (Table 7) Adherent cell studies: The cells were cultured in appropriate culture media (20 mL) in tissue culture treated T150 flasks at 37° C. and 5% CO2. Adherent cells were detached (60-70% confluent) using 5 mL Versene at 37° C. for 3 minutes. After confirming the viability using countess and count of detached cells using Trypan blue, the cells were centrifuged at 4° C. for 5 minutes (1,000 rpm). The cell pellet obtained was washed once with PBS and resuspended in 1% PBSA to obtain the desired cell concentration (5-25 million cells/mL).
(§3) Cell numbers used for the assay were in the range of 5 million cells/condition −25 million cells/condition.
(§4) Total uptake: Cells were incubated with 300 μL (0.8 μCi) of the incubation buffer (containing radiolabeled peptide [^177Lu] Lu-test peptide) for 1 hour at 37° C. (Table 8). Post incubation, the cells were pelleted and washed 2 times using cold PBS+1% BSA. The supernatant and washes were combined and counted together as “unbound fraction” in a gamma counter. The cells were then resuspended in 300 μL of 1% PBS+1% BSA and counted in the gamma counter as “bound fraction”.
(§5) In these Tables, “A” represents %≤25; “B” represents 25<%≤50; “C” represents %>50.

SHP-77 tumors = assay: Ex vivo biodistribution of radiolabeled peptides in nude mice bearing SHP-77 tumors; settings: [177Lu]Lu labelling, nude mice bearing SHP-77 tumors (n = 3), 24 hours post-injection
Description: Mice were intravenously injected (via the lateral tail vein) with a bolus dose of the radiolabeled peptides for ex vivo biodistribution studies when tumor volumes were in range of 200-400 mm^3 for xenograft mice and when age of the mice was 5-7 weeks for tumor naïve mice studies. To assess the amount of radionuclide injected into individual mice the syringe was assayed in a dose calibrator before and after injection for [^177Lu]Lu-peptide.
Mice were euthanized at pre-determined time points and selected tissues were resected and collected into pre-weighed tubes. The tubes were then reweighed post resection, the difference giving the weight of each tissue. Radioactivity in each tissue was measured using a gamma counter. Counts were decay corrected to the time of injection and percentage of injected activity per gram (% IA/g) was calculated for each tissue based on the injected activity into each individual mouse. Injected activity was converted to counts based on the sensitivity of the gamma counter. The counts in tissue were then converted to the percentage of injected activity and this was divided by the mass of tissue to give % IA/g.

human DLL3 = biological target: T1, human DLL3 (Homo sapiens, UniProt Q9NYJ7); assay: Affinity determination by Surface Plasmon Resonance (SPR); assay type: binding; settings: 25° C., biotinylated human DLL3 immobilized on streptavidin sensor chip, 1:1 binding model; read-out: SPR KD
T1 sequence (Q9NYJ7 27-618): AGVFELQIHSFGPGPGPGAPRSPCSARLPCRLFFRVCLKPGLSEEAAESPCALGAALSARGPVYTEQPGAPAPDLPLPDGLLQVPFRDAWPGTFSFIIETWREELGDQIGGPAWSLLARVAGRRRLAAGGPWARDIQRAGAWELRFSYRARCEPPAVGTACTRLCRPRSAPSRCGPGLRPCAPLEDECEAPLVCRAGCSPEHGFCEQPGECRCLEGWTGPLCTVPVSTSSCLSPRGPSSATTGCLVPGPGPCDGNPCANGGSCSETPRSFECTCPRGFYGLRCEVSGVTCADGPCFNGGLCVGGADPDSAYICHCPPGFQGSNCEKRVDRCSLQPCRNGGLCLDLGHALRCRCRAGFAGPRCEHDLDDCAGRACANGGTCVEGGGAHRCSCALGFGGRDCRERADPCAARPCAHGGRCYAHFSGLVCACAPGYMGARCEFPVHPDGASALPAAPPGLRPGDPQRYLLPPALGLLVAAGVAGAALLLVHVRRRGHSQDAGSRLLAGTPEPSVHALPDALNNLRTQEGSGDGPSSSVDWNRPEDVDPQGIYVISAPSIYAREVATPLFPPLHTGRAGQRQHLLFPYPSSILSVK
In short: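 Kinetic and affinity constants were derived by fitting sensorgrams to a 1:1 binding model. Graded compound concentrations flowed at 100 μL/minute in 20 mM phosphate running buffer with 2% DMSO over streptavidin-immobilized biotinylated human DLL3, reference-subtracted.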

CT26.DLL3 cells [2] = assay: Internalization (out of bound fraction) of [177Lu]Lu-test peptide, CT26.DLL3 cells; assay type: cell-based; settings: 1 hour at 37° C., glycine pH 2.5 wash
Description: as §1, §2, §3, §4
Internalization: The resuspended cells in 300 μl of 1% PBSA and counted in the gamma counter as “bound fraction” were collected in 1.5 mL Eppendorf tube and pelleted. The pelleted cells were incubated with 300 μl of 50 mM Glycine pH=2.5 for 3 minutes and then pelleted discarding the supernatant. This process was repeated one more time. The pelleted cells were washed with 300 μl of cold 1% PBSA and then resuspended in 300 μl 0.3M NaOH. This was counted in the gamma counter as “internalized fraction”.
as §5

SMILES	% Binding (CT26.DLL3 cells [1])	kidney uptake (% IA/g) (SHP-77 tumors)	tumor uptake (% IA/g) (SHP-77 tumors)	Kd (human DLL3) [nM]	% Internalization (out of bound fraction) (CT26.DLL3 cells [2])
CC[C@H](C)[C@H](NC(=O)[C@@H](NC(=O)[C@H](Cc1c[nH]c2ccccc12)NC(C)=O)[C@@H](C)O)C(=O)N[C@H]1CSSC[C@@H](C(=O)N[C@@H](Cc2c[nH]c3ccccc23)C(=O)N2CCC[C@H]2C(=O)N[C@H](CCCCNC(=O)CN2CCN(CC(=O)O)CCN(CC(=O)O)CCN(CC(=O)O)CC2)C(N)=O)NC(=O)[C@H](CC(N)=O)NC(=O)[C@H](Cc2cnc[nH]2)NC(=O)[C@H](Cc2ccc3ccccc3c2)NC(=O)[C@H](CC(N)=O)NC(=O)[C@H](CC(N)=O)NC1=O [compound 211, Ac-W-T-I-C(3)-N-N-(2Nal)-H-(Asn)-C(3)-W-P-[D-Lys(DOTA)]-NH2] (Ac-WTICNN[2Nal]HNCWP[dK](DOTA)-NH2; disulfide 4-10)	A (%≤25)	D (% IA/g > 10 in kidney)	A (0 < % IA/g ≤ 5 in tumor)	< 1	B (25<%≤50)
CC[C@H](C)[C@H](NC(=O)[C@@H](NC(=O)[C@H](Cc1c[nH]c2ccccc12)NC(C)=O)[C@@H](C)O)C(=O)N[C@H]1CSSC[C@@H](C(=O)N[C@@H](Cc2c[nH]c3ccccc23)C(=O)N2CCC[C@H]2C(=O)N[C@H](CCCCNC(=O)CN2CCN(CC(=O)O)CCN(CC(=O)O)CCN(CC(=O)O)CC2)C(N)=O)NC(=O)[C@H](CC(=O)O)NC(=O)[C@H](CCCCN)NC(=O)[C@H](Cc2ccc3ccccc3c2)NC(=O)[C@H](CC(N)=O)NC(=O)[C@H](CC(N)=O)NC1=O [compound 237, Ac-W-T-I-C(3)-N-N-(2Nal)-K-D-C(3)-W-P-[D-Lys(DOTA)]-NH2] (Ac-WTICNN[2Nal]KDCWP[dK](DOTA)-NH2; disulfide 4-10)	A (%≤25)	–	–	< 1	–
CC[C@H](C)[C@H](NC(=O)[C@@H](NC(=O)[C@H](Cc1c[nH]c2ccccc12)NC(C)=O)[C@@H](C)O)C(=O)N[C@H]1CSSC[C@@H](C(=O)N[C@@H](Cc2c[nH]c3ccccc23)C(=O)N2CCC[C@H]2C(=O)N[C@H](CCCCNC(=O)CN2CCN(CC(=O)O)CCN(CC(=O)O)CCN(CC(=O)O)CC2)C(N)=O)NC(=O)[C@H](CC(=O)O)NC(=O)[C@H](Cc2cnc[nH]2)NC(=O)[C@H](Cc2ccc3ccccc3c2)NC(=O)[C@H](CC(N)=O)NC(=O)[C@H](CCCCN)NC1=O [compound 259] (Ac-WTICKN[2Nal]HDCWP[dK](DOTA)-NH2; disulfide 4-10)	B (25<%≤50)	–	–	< 1	–
CC[C@H](C)[C@H](NC(=O)[C@@H](NC(=O)[C@H](Cc1c[nH]c2ccccc12)NC(C)=O)[C@@H](C)O)C(=O)N[C@H]1CSSC[C@@H](C(=O)N[C@@H](Cc2c[nH]c3ccccc23)C(=O)N2CCC[C@H]2C(=O)N[C@H](CCCCNC(=O)CN2CCN(CC(=O)O)CCN(CC(=O)O)CCN(CC(=O)O)CC2)C(N)=O)NC(=O)[C@H](CC(=O)O)NC(=O)[C@H](Cc2cnc[nH]2)NC(=O)[C@H](Cc2ccc3ccccc3c2)NC(=O)[C@H](CC(N)=O)NC(=O)[C@H](CC2CCNCC2)NC1=O [compound 260, Ac-W-T-I-C(3)-[3-(4-piperidinyl)-Ala]-N-(2Nal)-H-D-C(3)-W-P-[D-Lys(DOTA)]-NH2] (Ac-WTIC[Ala(piperidin-4-yl)]N[2Nal]HDCWP[dK](DOTA)-NH2; disulfide 4-10)	B (25<%≤50)	C (0 < % IA/g ≤ 10 in kidney)	A (0 < % IA/g ≤ 5 in tumor)	< 1	–
CC[C@H](C)[C@H](NC(=O)[C@@H](NC(=O)[C@H](Cc1c[nH]c2ccccc12)NC(C)=O)[C@@H](C)O)C(=O)N[C@H]1CSSC[C@@H](C(=O)N[C@@H](Cc2c[nH]c3ccccc23)C(=O)N2CCC[C@H]2C(=O)N[C@H](CCCCNC(=O)CN2CCN(CC(=O)O)CCN(CC(=O)O)CCN(CC(=O)O)CC2)C(N)=O)NC(=O)[C@H](CC(=O)O)NC(=O)[C@H](Cc2cnc[nH]2)NC(=O)[C@H](Cc2ccc3ccccc3c2)NC(=O)[C@H](CC(N)=O)NC(=O)[C@H](CN2CCOCC2)NC1=O [compound 261, Ac-W-T-I-C(3)-[3-(1-morpholinyl)-Ala]-N-(2Nal)-H-D-C(3)-W-P-[D-Lys(DOTA)]-NH2] (Ac-WTIC[Ala(morpholin-4-yl)]N[2Nal]HDCWP[dK](DOTA)-NH2; disulfide 4-10)	A (%≤25)	C (0 < % IA/g ≤ 10 in kidney)	A (0 < % IA/g ≤ 5 in tumor)	< 1	B (25<%≤50)
CC[C@H](C)[C@H](NC(=O)[C@@H](NC(=O)[C@H](Cc1c[nH]c2ccccc12)NC(C)=O)[C@@H](C)O)C(=O)N[C@H]1CSSC[C@@H](C(=O)N[C@@H](Cc2c[nH]c3ccccc23)C(=O)N2CCC[C@H]2C(=O)N[C@H](CCCCNC(=O)CN2CCN(CC(=O)O)CCN(CC(=O)O)CCN(CC(=O)O)CC2)C(N)=O)NC(=O)[C@H](CC(=O)O)NC(=O)[C@H](Cc2cnc[nH]2)NC(=O)[C@H](Cc2ccc3ccccc3c2)NC(=O)[C@H](Cc2cccnc2)NC(=O)[C@H](CC(N)=O)NC1=O [compound 265, Ac-W-T-I-C(3)-N-(3Pya)-(2Nal)-H-D-C(3)-W-P-[D-Lys(DOTA)]-NH2] (Ac-WTICN[3Pal][2Nal]HDCWP[dK](DOTA)-NH2; disulfide 4-10)	–	D (% IA/g > 10 in kidney)	A (0 < % IA/g ≤ 5 in tumor)	< 1	–
CC(=O)N[C@@H](Cc1c[nH]c2ccccc12)C(=O)N[C@H](C(=O)N[C@H](C(=O)N[C@H]1CSSC[C@@H](C(=O)N[C@@H](Cc2c[nH]c3ccccc23)C(=O)N2CCC[C@H]2C(=O)N[C@H](CCCCNC(=O)CN2CCN(CC(=O)O)CCN(CC(=O)O)CCN(CC(=O)O)CC2)C(N)=O)NC(=O)[C@H](CC(=O)O)NC(=O)[C@H](Cc2cnc[nH]2)NC(=O)[C@H](Cc2ccc3ccccc3c2)NC(=O)[C@H](CC(N)=O)NC(=O)[C@H](CC2CCNCC2)NC1=O)C1CCCCC1)[C@@H](C)O [compound 280, Ac-W-T-(Chg)-C(3)-[3-(4-piperidinyl)-Ala]-N-(2Nal)-H-D-C(3)-W-P-[D-Lys(DOTA)]-NH2] (Ac-WT[Chg]C[Ala(piperidin-4-yl)]N[2Nal]HDCWP[dK](DOTA)-NH2; disulfide 4-10)	–	C (0 < % IA/g ≤ 10 in kidney)	A (0 < % IA/g ≤ 5 in tumor)	< 1	–
